Structures are written as SMILES.

The assay deals with MNK2 (Homo sapiens (Human), UniProt Q9HBH9). As to the kind of experiment: MNK Biochemical Enzymatic Assay (ADP-Glo), MNK2 binding assay. On the procedure: MNK Biochemical Enzymatic Assay. This protocol establishes the binding assays for MNK1 and MNK2 using ADP-Glo assay. MNK phosphorylates the substrate and converts ATP to ADP, which was detected by Envision and used to reflect the reminding activity of MNK. Reagents and equipment used in the assay are listed below, followed by the protocol.
Chain of MNK2 (Q9HBH9 whole entry): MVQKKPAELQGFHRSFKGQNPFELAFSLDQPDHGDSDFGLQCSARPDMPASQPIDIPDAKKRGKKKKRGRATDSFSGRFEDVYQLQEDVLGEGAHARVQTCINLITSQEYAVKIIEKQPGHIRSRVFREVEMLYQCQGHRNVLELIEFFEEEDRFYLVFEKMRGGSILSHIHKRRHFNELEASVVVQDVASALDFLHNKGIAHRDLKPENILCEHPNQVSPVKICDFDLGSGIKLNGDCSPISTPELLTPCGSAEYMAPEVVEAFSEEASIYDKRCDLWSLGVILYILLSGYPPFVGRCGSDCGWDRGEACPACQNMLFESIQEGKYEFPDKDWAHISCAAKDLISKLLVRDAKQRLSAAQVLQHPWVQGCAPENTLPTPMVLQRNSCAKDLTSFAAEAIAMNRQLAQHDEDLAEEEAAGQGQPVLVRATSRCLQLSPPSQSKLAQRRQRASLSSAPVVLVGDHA
• a) Add 50 μL compound to 384-well dilution plate • b) Dilute compound 1:3 in succession in DMSO for each column for 10+0 pts (refer to dilution plate map) • c) Transfer 0.1 μL diluted compound solution in each row to 384 assay plate using Echo, each column containing 2 replicates (refer to assay plate map) • d) Add 5 μL enzyme working solution to 384-well assay plate, centrifuge 1000 RPM for 1 min • e) Incubate at 25° C. for 15 min • f) Add 5 μL substrate working solution to initiate reaction • g) Incubate at 25° C. for 60 min • h) Add 10 μL ADP Glo reagent, centrifuge 1000 RPM for 1 min • i) Incubate at 25° C. for 60 min • j) Add 20 μL kinase detection reagent, centrifuge 1000 RPM for 1 min • k) Incubate at 25° C. for 60 min • l) Read on Envision for US LUM as RLU • m) Data analysis: IC50s were determined based on a non-linear regression analysis of data collected.
Background: ADP-Glo first removes unused ATP, then detects ADP through luciferase.
The IC50 is the concentration that gives 50% inhibition. The low end stands for greater potency, the high end for weaker potency. The compound `O=C1NC2(CCCCC2)c2cc(Nc3cc(NCC4CCCO4)ncn3)sc21` (stereo not shown) [Compound XXIII-Q, 2′-((6-(((tetrahydrofuran-2-yl)methyl)amino)pyrimidin-4-yl)amino)spiro[cyclohexane-1,4′-thieno[2,3-c]pyrrol]-6′(5′H)-one] registered a half-maximal inhibitory concentration (IC50) of 10 to 100 nM.

With `O=C1NC2(CCCCC2)c2cc(Nc3cc(NC4CCNC4)ncn3)sc21` (stereo not shown) [Compound XXIII-R, 2′-((6-(pyrrolidin-3-ylamino)pyrimidin-4-yl)amino)spiro[cyclohexane-1,4′-thieno[2,3-c]pyrrol]-6′(5′H)-one], the IC50 was in the range of 100 to 1000 nM.

Consider `Cc1cccnc1Nc1cc(Nc2cc3c(s2)C(=O)NC32CCCCC2)ncn1` [Compound XXIII-S, 2′-((6-((3-methylpyridin-2-yl)amino)pyrimidin-4-yl)amino)spiro [cyclohexane-1,4′-thieno[2,3-c]pyrrol]-6′(5′H)-one], for which the IC50 was 100 to 1000 nM. `O=C1NC2(CCCCC2)c2cc(Nc3cc(NC(=O)C4CCNC4)ncn3)sc21` (stereo not shown) [Compound XXIII-V, N-(6-((6′-oxo-5′,6′-dihydrospiro[cyclohexane-1,4′-thieno[2,3-c]pyrrol]-2′-yl)amino)pyrimidin-4-yl)pyrrolidine-3-carboxamide] returned an IC50 of 10 to 100 nM. With `COCCNc1cc(Nc2cc3c(s2)C(=O)NC32CCCCC2)ncn1` [Compound XXIII-W, 2′-((6-((2-methoxyethyl)amino)pyrimidin-4-yl)amino)spiro[cyclohexane-1,4′-thieno[2,3-c]pyrrol]-6′(5′H)-one] the figure was 10 to 100 nM; with `O=C1NC2(CCCCC2)c2cc(Nc3cc(N[C@H]4CCC[C@@H]4O)ncn3)sc21` [Compound XXIII-X, 2′-((6-(((1S,2S)-2-hydroxycyclopentyl)amino)pyrimidin-4-yl)amino)spiro[cyclohexane-1,4′-thieno[2,3-c]pyrrol]-6′(5′H)-one], 10 to 100 nM. Compound `O=C1NC2(CCCCC2)c2cc(Nc3cc(Nc4cccnc4)ncn3)sc21` [Compound XXIII-Z] displayed an IC50 of 10 to 100 nM. Take `O=C1NC2(CCCCC2)c2cc(Nc3cc(NCc4cccs4)ncn3)sc21` [Compound XXIV, 2′-((6-((Thiophen-2-ylmethyl)amino)pyrimidin-4-yl)amino)spiro[cyclohexane-1,4′-thieno[2,3-c]pyrrol]-6′(5′H)-one]: the half-inhibitory concentration (IC50) lay in the range of 10 to 100 nM. The compound `O=C1NC2(CCCCC2)c2cc(Nc3cc(NC4CCOCC4)ncn3)sc21` [Compound XXIV-D, 2′-((6-((tetrahydro-2H-pyran-4-yl)amino)pyrimidin-4-yl)amino)spiro[cyclohexane-1,4′-thieno[2,3-c]pyrrol]-6′(5′H)-one] registered an IC50 of 100 to 1000 nM. `O=C1NC2(CCCCC2)c2cc(Nc3cc(Nc4ccccc4F)ncn3)sc21` [Compound XXIV-E, 2′-((6-((2-fluorophenyl)amino)pyrimidin-4-yl)amino)spiro[cyclohexane-1,4′-thieno[2,3-c]pyrrol]-6′(5′H)-one] gave a 50% inhibitory concentration (IC50) of 10 to 100 nM. `O=C1NC2(CCCCC2)c2cc(Nc3cc(N[C@@H]4CCCOC4)ncn3)sc21` [Compound XXIV-F, (R)-2′-((6-((tetrahydro-2H-pyran-3-yl)amino)pyrimidin-4-yl)amino)spiro[cyclohexane-1,4′-thieno[2,3-c]pyrrol]-6′(5′H)-one] yielded an IC50 of 10 to 100 nM. Compound `O=C1NC2(CCCCC2)c2cc(Nc3cc(NC4CCCCC4)ncn3)sc21` [Compound XXIV-J, 2′-((6-(cyclohexylamino)pyrimidin-4-yl)amino)spiro[cyclohexane-1,4′-thieno[2,3-c]pyrrol]-6′(5′H)-one] came in with an IC50 of 10 to 100 nM.

Consider `Cn1cccc(Nc2cc(Nc3cc4c(s3)C(=O)NC43CCCCC3)ncn2)c1=O` [Compound XXIV-L, 2′-((6-((1-methyl-2-oxo-1,2-dihydropyridin-3-yl)amino)pyrimidin-4-yl)amino)spiro[cyclohexane-1,4′-thieno[2,3-c]pyrrol]-6′(5′H)-one], for which the IC50 is 100 to 1000 nM. On to `O=C1NC2(CCCCC2)c2cc(Nc3cc(N[C@@H]4CCOC4)ncn3)sc21` [Compound XXIV-M, (R)-2′-((6-((tetrahydrofuran-3-yl)amino)pyrimidin-4-yl)amino)spiro[cyclohexane-1,4′-thieno[2,3-c]pyrrol]-6′(5′H)-one], for which the IC50 was 10 to 100 nM. `Cc1nc(Nc2ccccn2)cc(Nc2cc(C)c3c([n+]2[O-])C2(CCCCC2)NC3=O)n1` [Compound XXIX-AAB, 4′-methyl-2′-((2-methyl-6-(pyridin-2-ylamino)pyrimidin-4-yl)amino)-5′-oxo-5′,6′-dihydrospiro[cyclohexane-1,7′-pyrrolo[3,4-b]pyridine] 1′-oxide] had an IC50 of 100 to 1000 nM. As to `Cc1cc(Nc2cc(NC(=O)c3ccccn3)ncn2)[n+]([O-])c2c1C(=O)NC21CCCCC1` [Compound XXIX-AAF, 4′-methyl-5′-oxo-2′-((6-(picolinamido)pyrimidin-4-yl)amino)-5′,6′-dihydrospiro[cyclohexane-1,7′-pyrrolo[3,4-b]pyridine] 1′-oxide], the IC50 was 10 to 100 nM. Take `COC(=O)C1(Nc2cc(Nc3cc(C)c4c([n+]3[O-])C3(CCCCC3)NC4=O)ncn2)CCOC1` (stereo not shown) [Compound XXIX-AAG, 2′-((6-((3-(methoxycarbonyl)tetrahydrofuran-3-yl)amino)pyrimidin-4-yl)amino)-4′-methyl-5′-oxo-5′,6′-dihydrospiro[cyclohexane-1,7′-pyrrolo[3,4-b]pyridine] 1′-oxide]: the IC50 lay within 100 to 1000 nM. Regarding `Cc1cc(Nc2ncnc3[nH]ncc23)[n+]([O-])c2c1C(=O)NC21CCCCC1` [Compound XXIX-AAH, 2′-((1H-pyrazolo[3,4-d]pyrimidin-4-yl)amino)-4′-methyl-5′-oxo-5′,6′-dihydrospiro[cyclohexane-1,7′-pyrrolo[3,4-b]pyridine] 1′-oxide], the half-inhibitory concentration (IC50) fell in the range of 10 to 100 nM.

Compound `Cc1cc(Nc2cc(Nc3ccnn3C3CCNCC3)ncn2)[n+]([O-])c2c1C(=O)NC21CCCCC1` [Compound XXIX-AAR, 4′-methyl-5′-oxo-2′-((6-((1-(piperidin-4-yl)-1H-pyrazol-5-yl)amino)pyrimidin-4-yl)amino)-5′,6′-dihydrospiro[cyclohexane-1,7′-pyrrolo[3,4-b]pyridine] 1′-oxide] came in with a concentration for half-maximal inhibition (IC50) of 0.1 to 10 nM. As for `Cc1cc(Nc2cc(Nc3ccc(C4=CCOCC4)cn3)ncn2)[n+]([O-])c2c1C(=O)NC21CCCCC1` [Compound XXIX-AAS, 2′-((6-((5-(3,6-dihydro-2H-pyran-4-yl)pyridin-2-yl)amino)pyrimidin-4-yl)amino)-4′-methyl-5′-oxo-5′,6′-dihydrospiro[cyclohexane-1,7′-pyrrolo[3,4-b]pyridine] 1′-oxide], the IC50 fell in the range of 0.1 to 10 nM. Take `Cc1cc(Nc2ncnc3c2CCN3)[n+]([O-])c2c1C(=O)NC21CCCCC1` [Compound XXIX-AB, 2′-((6,7-dihydro-5H-pyrrolo[2,3-d]pyrimidin-4-yl)amino)-4′-methyl-5′-oxo-5′,6′-dihydrospiro[cyclohexane-1,7′-pyrrolo[3,4-b]pyridine] 1′-oxide]: the IC50 was 10 to 100 nM. The compound `CC(=O)N1CC(Nc2cc(Nc3cc(C)c4c([n+]3[O-])C3(CCCCC3)NC4=O)ncn2)C1` [Compound XXIX-AC, 2′-((6-((1-acetylazetidin-3-yl)amino)pyrimidin-4-yl)amino)-4′-methyl-5′-oxo-5′,6′-dihydrospiro[cyclohexane-1,7′-pyrrolo[3,4-b]pyridine] 1′-oxide] returned a half-inhibitory concentration (IC50) of 10 to 100 nM.

The values above are taken from patent publication US20240092799A1, “MNK INHIBITORS” (Hepagene Therapeutics (HK) Limited, priority 2020, published 2024).
